Plasma concentration data for four molecules are collected here from US7575930B2, “Method for analyzing oligosaccharides from blood plasma” (priority 2005, dated 2009).

A short description of the data set: Monitoring of the plasma concentration of the main oligosaccharides of a VLMWH in human volunteers (plasma filtration + anion-exchange HPLC). The format is in vivo. As for the experimental part:
A plasma sample with a volume of between 100 and 1000 μl is withdrawn and, if appropriate, the internal standard is added to the latter.
After homogenization, the resulting solution is introduced into a 30 kD Ultrafree 05 ultrafiltration cartridge (Millipore) rinsed beforehand with 250 μl of water by centrifuging at 10 000 rev/min for 5 minutes. The plasma is introduced into the upper part of the cartridge once or twice, if the amounts to be filtered are greater than 500 μl.
The cartridge is centrifuged at 10 000 rev/min for between 1 and 2 hours and then the filtrate is withdrawn. If appropriate, the second part of the plasma to be filtered is introduced into the upper part of the cartridge and the latter is again centrifuged. The exact amount of plasma introduced will have been weighed. The cartridge is centrifuged until the protein residue in the upper part of the cartridge represents no more than approximately 10% of the initial part.
The filtrate is withdrawn and 210 μl of 3M KCl per ml of plasma filtered are added to the concentrate.
After homogenization, the cartridge is centrifuged at 10 000 rev/min for between 1 and 4 hours. The cartridge is centrifuged until the protein residue in the upper part of the cartridge represents no more than approximately 10% of the initial part.
The second filtrate is withdrawn and 210 μl of 3M KCl per ml of plasma filtered are added a second time to the concentrate.
The third filtrate is withdrawn and 250 μl of water per ml of plasma filtered are added.
The filtrates are combined and diluted 5 fold in water, and the whole is injected directly in anion-exchange HPLC. Immediately before injection, the pH of the injected solution is adjusted to 3 by addition of 1N HCl.
The filtered plasma is analyzed by anion-exchange HPLC.
The columns used are IonPAc As11 columns (Dionex), with a length of 25 cm and an internal diameter of 2 mm. The detector used is a UV spectrophotometer equipped with an array of diodes.
The whole of the […] is injected after adjustment of the pH to 3 by addition of N HCl. The flow rate chosen is 0.22 ml/min; the column temperature is 40° C.
Elution is carried out in gradient mode. The two solutions used are:
Solvent A: NaH2PO4 2.5 mM, brought to pH 2.9 by addition of H3PO4
Solvent B: NaClO4 1N, NaH2PO4 2.5 mM, brought to pH 3.0 by addition of H3PO4
The elution gradient is as follows:
T=0 min: % B=3; T=40 min: % B=60; T=60 min: % B=80
A VLMWH with an average molecular weight of 2500 Da is administered at the target dose of 1.4 mg/kg to human volunteers. Blood samples are withdrawn at the times 0, 0.25 h, 0.5 h, 0.75 h, 1 h, 1.25 h, 1.5 h, 2 h, 2.5 h, 3 h, 3.5 h, 4 h, 4.5 h, 5 h, 6 h, 7 h, 8 h, 9 h, 10 h, 12 h, 14 h and 24 h after administration.
As the VLMWH used is a complex mixture of oligosaccharides, the study was limited to certain components chosen from this mixture.

[1] abbreviates: 0 h after administration of VLMWH (2500 Da) 1.4 mg/kg.
[2] abbreviates: 0.25 h after administration of VLMWH (2500 Da) 1.4 mg/kg.
Setting [3] is: 0.5 h after administration of VLMWH (2500 Da) 1.4 mg/kg.
The mark [4] stands for this setting: 0.75 h after administration of VLMWH (2500 Da) 1.4 mg/kg.
Where [5] appears, read: 1 h after administration of VLMWH (2500 Da) 1.4 mg/kg.
The mark [6] stands for this setting: 1.25 h after administration of VLMWH (2500 Da) 1.4 mg/kg.
Setting [7] is: 1.5 h after administration of VLMWH (2500 Da) 1.4 mg/kg.
Where [8] appears, read: 2 h after administration of VLMWH (2500 Da) 1.4 mg/kg.
[9] abbreviates: 2.5 h after administration of VLMWH (2500 Da) 1.4 mg/kg.
Setting [10] is: 3 h after administration of VLMWH (2500 Da) 1.4 mg/kg.
Where [11] appears, read: 3.5 h after administration of VLMWH (2500 Da) 1.4 mg/kg.
Setting [12] is: 4 h after administration of VLMWH (2500 Da) 1.4 mg/kg.
[13] abbreviates: 4.5 h after administration of VLMWH (2500 Da) 1.4 mg/kg.
[14] abbreviates: 5 h after administration of VLMWH (2500 Da) 1.4 mg/kg.
Setting [15] is: 6 h after administration of VLMWH (2500 Da) 1.4 mg/kg.
Setting [16] is: 7 h after administration of VLMWH (2500 Da) 1.4 mg/kg.
The mark [17] stands for this setting: 8 h after administration of VLMWH (2500 Da) 1.4 mg/kg.
[18] abbreviates: 9 h after administration of VLMWH (2500 Da) 1.4 mg/kg.
Setting [19] is: 10 h after administration of VLMWH (2500 Da) 1.4 mg/kg.
The mark [20] stands for this setting: 12 h after administration of VLMWH (2500 Da) 1.4 mg/kg.
Where [21] appears, read: 14 h after administration of VLMWH (2500 Da) 1.4 mg/kg.

For the molecule `CC(=O)NC1C(OC2C(C(=O)O)OC(OC3C(COS(=O)(=O)O)OC(OC4C(C(=O)O)OC(OC5C(COS(=O)(=O)O)OC(O)C(NS(=O)(=O)O)C5O)C(OS(=O)(=O)O)C4O)C(NS(=O)(=O)O)C3OS(=O)(=O)O)C(O)C2O)OC(COS(=O)(=O)O)C(OC2OC(C(=O)O)=CC(O)C2O)C1O` (stereo not shown) [ΔIIaIIsIs], the plasma concentration by setting is: under setting [1], 0 nM; under setting [2], 50 nM; under setting [3], 100 nM; under setting [4], 100 nM; under setting [5], 100 nM; under setting [6], 120 nM. Further, the plasma concentration reads like this: under setting [7], 110 nM; under setting [8], 110 nM; under setting [9], 90 nM; under setting [10], 80 nM; under setting [11], 90 nM; under setting [12], 100 nM. For the same molecule, the plasma concentration was determined as 100 nM under setting [13]; 90 nM under setting [14]; 80 nM under setting [15]; 100 nM under setting [16]; 70 nM under setting [17]; 70 nM under setting [18]. Also, the plasma concentration by setting is: under setting [19], 70 nM; under setting [20], 80 nM; under setting [21], 70 nM; (24 h after administration of VLMWH (2500 Da) 1.4 mg/kg) 50 nM.
Regarding `O=C(O)C1=CC(O)C(OS(=O)(=O)O)C(OC2C(COS(=O)(=O)O)OC(OC3C(C(=O)O)OC(OC4C(COS(=O)(=O)O)OC(OC5C(C(=O)O)OC(OC6C(COS(=O)(=O)O)OC(O)C(NS(=O)(=O)O)C6O)C(OS(=O)(=O)O)C5O)C(NS(=O)(=O)O)C4O)C(OS(=O)(=O)O)C3O)C(NS(=O)(=O)O)C2O)O1` (stereo not shown) [ΔIsIsIs], the plasma concentration by setting is: under setting [1], 0 nM; under setting [2], 20 nM; under setting [3], 40 nM; under setting [4], 30 nM; under setting [5], 40 nM; under setting [6], 40 nM. For the same molecule, the plasma concentration runs as follows: under setting [7], 30 nM; under setting [8], 30 nM; under setting [9], 20 nM; under setting [10], 20 nM; under setting [11], 20 nM; under setting [12], 10 nM. Further, the plasma concentration under setting [13] came to 10 nM; the plasma concentration under setting [14] was 10 nM; the plasma concentration under setting [15] was 10 nM; the plasma concentration under setting [16] turned out to be 10 nM; the plasma concentration under setting [17] was found to be 0 nM; the plasma concentration under setting [18] came out at 0 nM. The plasma concentration under setting [19] stood at 0 nM, the plasma concentration under setting [20] amounted to 0 nM and the plasma concentration under setting [21] was 0 nM.
Regarding `O=C(O)C1=CC(O)C(OS(=O)(=O)O)C(OC2C(COS(=O)(=O)O)OC(OC3C(C(=O)O)OC(OC4C(COS(=O)(=O)O)OC(O)C(NS(=O)(=O)O)C4O)C(OS(=O)(=O)O)C3O)C(NS(=O)(=O)O)C2O)O1` (stereo not shown) [ΔIsIs], the plasma concentration is 0 nM under setting [1]; 160 nM under setting [2]; 240 nM under setting [3]; 210 nM under setting [4]; 200 nM under setting [5]; 190 nM under setting [6]. Moreover, the plasma concentration under setting [7] came out at 190 nM; the plasma concentration under setting [8] worked out at 150 nM; the plasma concentration under setting [9] came out at 100 nM; the plasma concentration under setting [10] worked out at 90 nM; the plasma concentration under setting [11] came to 70 nM; the plasma concentration under setting [12] was 70 nM. The plasma concentration runs as follows: under setting [13], 60 nM; under setting [14], 50 nM; under setting [15], 40 nM; under setting [16], 30 nM; under setting [17], 20 nM; under setting [18], 10 nM. The plasma concentration by setting is: under setting [19], 10 nM; under setting [20], 10 nM; under setting [21], 0 nM.
`O=C(O)C1=CC(O)C(OS(=O)(=O)O)C(OC2C(COS(=O)(=O)O)OC(O)C(NS(=O)(=O)O)C2O)O1` (stereo not shown) [ΔIs]: the plasma concentration reads like this: under setting [1], 0 nM; under setting [2], 240 nM; under setting [3], 300 nM; under setting [4], 260 nM; under setting [5], 230 nM; under setting [6], 200 nM. Moreover, the plasma concentration was 190 nM under setting [7]; 160 nM under setting [8]; 110 nM under setting [9]; 100 nM under setting [10]; 80 nM under setting [11]; 70 nM under setting [12]. Besides, the plasma concentration by setting is: under setting [13], 60 nM; under setting [14], 40 nM; under setting [15], 30 nM; under setting [16], 30 nM; under setting [17], 20 nM; under setting [18], 10 nM. For the same molecule, the plasma concentration was found to be 10 nM under setting [19], 0 nM under setting [20] and 0 nM under setting [21].
